Measurements: patent US12275684B2, “Methods for making and using endoxifen” (Atossa Therapeutics, Inc., priority 2017, dated 2025)
Read-outs that look alike come from different tables or passages of the source.

Experiment: Placebo controlled, dose escalation pharmacokinetic study of oral (Z)-Endoxifen capsules (serum endoxifen; incl. accumulation ratios and dose linearity)
Type: in vivo, human
Conditions: for AUC(0-t) / Cmax / Tmax / half-life / AUC(0-inf) / AUC / Vd/F: female, human, serum, po; for AUC(0-inf): read-out: AUC0-inf; for AUC: read-out: AUC to last time point; for Vd/F: read-out: volume of distribution (Vd/F); for time to attain steady state: once daily oral dosing
Text: An objective of the study was to assess the safety and tolerability of oral (Z)-Endoxifen when administered […] orally as a capsule to healthy female volunteers. A secondary objective was to assess the pharmacokinetics of multiple doses of oral (Z)-Endoxifen in the subjects.
Generally, healthy female volunteers aged ≥18 years and ≤65 years were enrolled. 24 participants were enrolled in 3 cohorts and will be administered study drug orally. Three dose levels of orally administered (Z)-Endoxifen were investigated in 3 cohorts. In each cohort participants were randomized to receive an oral (Z)-Endoxifen or placebo in a blinded fashion. Enteric-resistant capsules used in the study were designed as delayed release capsules to resist rupture for at least 30 minutes, but typically, for about 2 hours, under gastric conditions and then open fully in intestinal fluid (DRCaps; Capsugel, a Lonza Company, USA). Enteric-resistant (Swedish Orange size Zero (0); Capsugel, USA) DRCaps capsules manually filled with 1, 2 or 4 mg of (Z)-endoxifen neat in compliance with GMP requirements were used. Placebo capsules contained microcrystalline cellulose an inert common capsule and tablet excipient.
Each cohort enrolled 8 participants, with 6 participants receiving (Z)-Endoxifen 1 mg capsules orally at 1 mg (Cohort 1), 2 mg (Cohort 2) or 4 mg (Cohort 3) doses and 2 participants receiving matching placebo capsules. In Cohort 1 (Dose Level=1 mg) two participants (sentinels) were dosed 24 hours prior to the remaining participants. One sentinel was dosed with (Z)-Endoxifen and the other with placebo. The remaining six participants in Cohort 1 were dosed as no safety concerns were identified in the sentinel participants. The non-sentinel participants in Cohort 1 were admitted to the clinical research facility at least one day later than the sentinels. There were no sentinels in Cohorts 2 and 3.
Participant engagement in this study was for a period of 56 days. These included a 28 day screening period, and a 7 day post treatment period for Pharmacokinetic (PK) sampling. There were two confinement periods, one at the beginning and one at the end of the dosing periods. Participants were confined to the clinical facility on Days-1 through to Day 2 and Days 21 and 22. If participants were to experience any clinically significant adverse events during the study, they would have been required to remain in the clinical facility for further observation at the discretion of the Principal Investigator (PI).
Healthy female volunteers were screened within 28 days prior to commencement of dosing. Participants were admitted to the clinical facility on Day-1 for up to 3 days. The first dose of (Z)-Endoxifen or placebo capsules was administered on Day 1. Following completion of all safety assessments and sampling for PK analyses, participants were discharged from the clinical facility on Day 2. The first dose on Day 1 was followed by a 6-day treatment free period (Days 2-7). Each participant returned to the clinical facility for PK blood draws and safety assessments during the treatment free period on study Days 4 and 6. On Day 8 participants commenced daily administration of (Z)-Endoxifen capsules or placebo capsules for 14 consecutive days (Days 8-21). Participants were supplied with study drug capsules and asked to self administer daily. Participants visited the clinical facility on Days 11, 14 and 17, prior to dose administration, for PK blood draws and safety assessments. On the morning of Day 21 each participant returned to the clinical facility prior to dose administration and were confined to the facility until Day 22 to allow for the collection of PK blood draws and safety assessments. The Day 21 dose was the last administration of study drug. Participants were discharged from the clinical facility on Day 22 and returned for PK blood draws and safety assessments on study Days 24, 26, and 28. […]

[1] = 4 mg, Day 1, dose 4 mg oral, GeoMean, N 6
[2] = 4 mg, Day 1, dose 4 mg oral, Mean, N 6
[3] = 4 mg, Day 1, dose 4 mg oral, Median, N 6

CC/C(=C(\c1ccc(O)cc1)c1ccc(OCCNC)cc1)c1ccccc1 [(Z)-Endoxifen, (Z)-4-(1-(4-(2-(methylamino)ethoxy)phenyl)-2-phenylbut-1-enyl) phenol]
AUC(0-t) (2 mg/day, Day 21, 2 mg/day oral (n = 6), read-out: AUC24 hr, Arithmetic Mean): 911 ng·h/mL | Cmax (2 mg/day, Day 21, 2 mg/day oral (n = 6), read-out: Cmax, Arithmetic Mean): 50 ng/mL | Tmax (2 mg/day, Day 21, 2 mg/day oral (n = 6), read-out: Median Tmax): 4 h | Tmax (2 mg/day, Day 21, 2 mg/day oral (n = 6), read-out: Tmax (Range)): 2 to 6.05 h | half-life (2 mg/day, Day 21, 2 mg/day oral (n = 6), read-out: t1/2, Arithmetic Mean (converted)): 43.4 h | AUC(0-inf) [1]: 1700 ng·h/mL | AUC(0-t) (4 mg, Day 1, dose 4 mg oral, GeoMean, N 6, read-out: AUC24hr): 521 ng·h/mL | AUC [1]: 1420 ng·h/mL | Cmax (4 mg, Day 1, dose 4 mg oral, GeoMean, N 6, read-out: Cmax): 29.1 ng/mL | Tmax (4 mg, Day 1, dose 4 mg oral, GeoMean, N 6, read-out: Tmax): 5.15 h | half-life (4 mg, Day 1, dose 4 mg oral, GeoMean, N 6, read-out: apparent terminal half life (t½) (converted)): 40.7 h | Vd/F [1]: 138 L | AUC(0-inf) [2]: 2020 ng·h/mL | AUC(0-t) (4 mg, Day 1, dose 4 mg oral, Mean, N 6, read-out: AUC24hr): 587 ng·h/mL | AUC [2]: 1650 ng·h/mL | Cmax (4 mg, Day 1, dose 4 mg oral, Mean, N 6, read-out: Cmax): 32.5 ng/mL | Tmax (4 mg, Day 1, dose 4 mg oral, Mean, N 6, read-out: Tmax): 5.56 h | half-life (4 mg, Day 1, dose 4 mg oral, Mean, N 6, read-out: apparent terminal half life (t½) (converted)): 41.6 h | Vd/F [2]: 154 L | AUC(0-inf) [3]: 1760 ng·h/mL | AUC(0-t) (4 mg, Day 1, dose 4 mg oral, Median, N 6, read-out: AUC24hr): 539 ng·h/mL | AUC [3]: 1420 ng·h/mL | Cmax (4 mg, Day 1, dose 4 mg oral, Median, N 6, read-out: Cmax): 29.5 ng/mL | Tmax (4 mg, Day 1, dose 4 mg oral, Median, N 6, read-out: Tmax): 5.08 h | half-life (4 mg, Day 1, dose 4 mg oral, Median, N 6, read-out: apparent terminal half life (t½) (converted)): 39.9 h | Vd/F [3]: 131 L | AUC(0-t) (4 mg, Day 21, dose 4 mg oral once daily, GeoMean, N 6, read-out: AUC24hr): 1740 ng·h/mL | Cmax (4 mg, Day 21, dose 4 mg oral once daily, GeoMean, N 6, read-out: Cmax): 100 ng/mL | Tmax (4 mg, Day 21, dose 4 mg oral once daily, GeoMean, N 6, read-out: Tmax): 4.75 h | half-life (4 mg, Day 21, dose 4 mg oral once daily, GeoMean, N 6, read-out: apparent terminal half life (t½) (converted)): 44.6 h | Vd/F (4 mg, Day 21, dose 4 mg oral once daily, GeoMean, N 6): 148 L | AUC(0-t) (4 mg, Day 21, dose 4 mg oral once daily, Mean, N 6, read-out: AUC24hr): 2040 ng·h/mL | Cmax (4 mg, Day 21, dose 4 mg oral once daily, Mean, N 6, read-out: Cmax): 115 ng/mL | Tmax (4 mg, Day 21, dose 4 mg oral once daily, Mean, N 6, read-out: Tmax): 5.33 h | half-life (4 mg, Day 21, dose 4 mg oral once daily, Mean, N 6, read-out: apparent terminal half life (t½) (converted)): 45.1 h | Vd/F (4 mg, Day 21, dose 4 mg oral once daily, Mean, N 6): 189 L | AUC(0-t) (4 mg, Day 21, dose 4 mg oral once daily, Median, N 6, read-out: AUC24hr): 2470 ng·h/mL | Cmax (4 mg, Day 21, dose 4 mg oral once daily, Median, N 6, read-out: Cmax): 131 ng/mL | Tmax (4 mg, Day 21, dose 4 mg oral once daily, Median, N 6, read-out: Tmax): 5 h | half-life (4 mg, Day 21, dose 4 mg oral once daily, Median, N 6, read-out: apparent terminal half life (t½) (converted)): 45.3 h | Vd/F (4 mg, Day 21, dose 4 mg oral once daily, Median, N 6): 106 L | AUC(0-t) (4 mg/day, Day 1, 4 mg/day oral (n = 6), read-out: AUC24 hr, Arithmetic Mean): 587 ng·h/mL | Cmax (4 mg/day, Day 1, 4 mg/day oral (n = 6), read-out: Cmax, Arithmetic Mean): 32.5 ng/mL | Tmax (4 mg/day, Day 1, 4 mg/day oral (n = 6), read-out: Median Tmax): 5.08 h | Tmax (4 mg/day, Day 1, 4 mg/day oral (n = 6), read-out: Tmax (Range)): 3 to 6 h | half-life (4 mg/day, Day 1, 4 mg/day oral (n = 6), read-out: t1/2, Arithmetic Mean (converted)): 41.6 h | AUC(0-t) (4 mg/day, Day 21, 4 mg/day oral (n = 6), read-out: AUC24 hr, Arithmetic Mean): 2040 ng·h/mL | Cmax (4 mg/day, Day 21, 4 mg/day oral (n = 6), read-out: Cmax, Arithmetic Mean): 115 ng/mL | Tmax (4 mg/day, Day 21, 4 mg/day oral (n = 6), read-out: Median Tmax): 5 h | Tmax (4 mg/day, Day 21, 4 mg/day oral (n = 6), read-out: Tmax (Range)): 2 to 10 h | half-life (4 mg/day, Day 21, 4 mg/day oral (n = 6), read-out: t1/2, Arithmetic Mean (converted)): 45.1 h | time to attain steady state: ≤ 7 days | time to attain steady state (listed as (Z)-endoxifen): approximately 7 days
